Measurements published in US6737383B1, “Herbicidal oxadiazolidines” (priority 1999, dated 2004).

Tests used:
dallisgrass = assay: Test D dallisgrass; format: in vivo, Paspalum dilatatum; settings: Postemergence, 0 to 100 scale
large crabgrass = assay: Test C postemergence large crabgrass; format: in vivo, Digitaria sanguinalis; settings: 0 to 100 scale, 0 no effect, 100 complete control
Summary of the method: (§1)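 Visual ratings on a 0 to 100 scale, where 0 means no effect and 100 complete control, were made versus untreated controls roughly 14 to 21 days after postemergence treatment. Test compounds were formulated in a non-phytotoxic solvent mixture containing a surfactant.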

common poppy = assay: Test E common poppy; format: in vivo, Papaver rhoeas; settings: Postemergence; for Common poppy plant response rating: Rate 250 g/ha, 0 to 100 scale where 0 is no effect and 100 is complete control
Protocol: (§2) Compounds evaluated in this test were formulated in a non-phytotoxic solvent mixture which included a surfactant and applied to plants that were in the 1- to 4-leaf stage (postemergence application). A mixture of sandy loam soil and greenhouse potting mix in a 60:40 ratio was used for the postemergence test.
(§3) Plantings of these crops and weed species were adjusted to produce plants of appropriate size for the postemergence test. All plant species were grown using normal greenhouse practices. Crop and weed species include annual bluegrass (Poa annua), blackgrass (Alopecurus myosuroides), black nightshade (Solanum nigra), chickweed (Stellaria media), common poppy (Papaver rhoeas), deadnettle (Lamium amplexicaule), downy brome (Bromus tectorum), field violet (Viola arvensis), galium (Galium aparine), green foxtail (Setaria viridis), Italian ryegrass (Lolium multiflorum), jointed goatgrass (Aegilops cylindrica), kochia (Kochia scoparia), lambsquarters (Chenopodium album), littleseed canarygrass (Phalaris minor), rape (Brassica napus), redroot pigweed (Amaranthus retroflexus), Russian thistle (Salsola kali), scentless chamomile (Matricaria inodora), spring barley (Hordeum vulgare), sugar beet (Beta vulgaris), sunflower (Helianthus annuus), ivyleaf speedwell (Veronica hederaefolia), spring wheat (Triticum aestivum), winter wheat (Triticum aestivum), wild buckwheat (Polygonum convolvulus), wild mustard (Sinapis arvensis), wild oat (Avena fatua), windgrass (Apera spica-venti) and winter barley (Hordeum vulgare).
(§4) Treated plants and untreated controls were maintained in a greenhouse for approximately 21 to 28 days, after which all treated plants were compared to untreated controls and visually evaluated. […] A dash response (-) means no test result.

spring wheat [1] = assay: Test E spring wheat; format: in vivo, Triticum aestivum; settings: Preemergence; for Spring Wheat plant response rating (0 to 100 scale): Rate 250 g/ha
spring wheat [2] = assay: Test E spring wheat; format: in vivo, Triticum aestivum; settings: Postemergence; for Plant response rating, Spring Wheat: 0 to 100 scale; for Spring Wheat plant response rating: Rate 250 g/ha, 0 to 100 scale where 0 is no effect and 100 is complete control
Protocol: as §2, §3, §4

Spanishneedles = assay: Test D Spanishneedles; format: in vivo, Bidens bipinnata; settings: Postemergence, 0 to 100 scale
windgrass = assay: Test E windgrass; format: in vivo, Apera spica-venti; settings: Preemergence; for Plant response rating, Windgrass: Rate 125 g/ha, 0 to 100 scale (0 no effect, 100 complete control)
ivyleaf morningglory = assay: Test C postemergence ivyleaf morningglory; format: in vivo, Ipomoea hederacea; settings: 0 to 100 scale, 0 no effect, 100 complete control
Protocol: as §2, with “grown for various periods of time before treatment” for “in the 1- to 4-leaf stage”
(§5) Plantings of these crops and weed species were adjusted to produce plants of appropriate size for the postemergence test. All plant species were grown using normal greenhouse practices. Crop and weed species include arrowleaf sida (Sida rhombifolia), barnyardgrass (Echinochloa crus-galli), cocklebur (Xanthium strumarium), common ragweed (Ambrosia elatior), corn (Zea mays), cotton (Gossypium hirsutum), eastern black nightshade (Solanum ptycanthum), fall panicum (Panicum dichotomiflorum), field bindweed (Convolvulus arvensis), giant foxtail (Setaria faberii), hairy beggarticks (Bidens pilosa), ivyleaf morningglory (Ipomoea hederacea), johnsongrass (Sorghum halepense), ladysthumb smartweed (Polygonum persicaria), lambsquarters (Chenopodium album), large crabgrass (Digitaria sanguinalis), purple nutsedge (Cyperus rotundus), redroot pigweed (Amaranthus retroflexus), soybean (Glycine max), surinam grass (Brachiaria decumbens), velvetleaf (Abutilon theophrasti) and wild poinsettia (Euphorbia heterophylla).
(§6) Treated plants and untreated controls were maintained in a greenhouse for approximately 14, to 21 days, after which all treated plants were compared to untreated controls and visually evaluated. Plant response ratings, summarized in Table C, were based upon a 0 to 100 scale where 0 was no effect and 100 was complete control. A dash response (−) means no test result.

Alexandergrass = assay: Test D Alexandergrass; format: in vivo, Brachiaria plantaginea; settings: Postemergence, 0 to 100 scale
common pursiane = assay: Test D common purslane; format: in vivo, Portulaca oleracea; settings: Postemergence, 0 to 100 scale
barnyardgrass = assay: Test C postemergence barnyardgrass; format: in vivo, Echinochloa crus-galli; settings: 0 to 100 scale, 0 no effect, 100 complete control
Summary of the method: as §1

spring barley = assay: Test E spring barley; format: in vivo, Hordeum vulgare; settings: Preemergence; for Spring Barley plant response rating (0 to 100 scale): Rate 250 g/ha
purple nutsedge = assay: Test C postemergence purple nutsedge; format: in vivo, Cyperus rotundus; settings: 0 to 100 scale, 0 no effect, 100 complete control
Protocol: as §2, with “grown for various periods of time before treatment” for “in the 1- to 4-leaf stage”
as §5, §6

galium = assay: Test E galium; format: in vivo, Galium aparine; settings: Postemergence; for Plant response rating, Galium: 0 to 100 scale; for Galium plant response rating: Rate 250 g/ha, 0 to 100 scale where 0 is no effect and 100 is complete control
Summary of the method: (§7)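 Visual evaluation versus untreated controls after about 21 to 28 days in the greenhouse. Compound was in a surfactant-containing non-phytotoxic solvent; postemergence plants were treated at the 1- to 4-leaf stage, grown in a 60:40 sandy loam and potting mix blend.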

deadnettle = assay: Test E deadnettle; format: in vivo, Lamium amplexicaule; settings: Postemergence; for Plant response rating, Deadnettle: 0 to 100 scale; for Deadnettle plant response rating: Rate 250 g/ha, 0 to 100 scale where 0 is no effect and 100 is complete control
Summary of the method: as §7

kochia = assay: Test E kochia; format: in vivo, Kochia scoparia; settings: Postemergence; for Plant response rating, Kochia: 0 to 100 scale; for Kochia plant response rating: Rate 250 g/ha, 0 to 100 scale where 0 is no effect and 100 is complete control
Protocol: as §2, §3, §4

[3] = Rate 16 g/ha, 0 no injury, 100 complete control
[4] = Rate 32 g/ha, 0 no injury, 100 complete control
[5] = Rate 64 g/ha, 0 no injury, 100 complete control
[6] = Rate 125 g/ha, 0 no injury, 100 complete control
[7] = Rate 125 g/ha, 0 to 100 scale (0 no effect, 100 complete control)
[8] = Rate 500 g/ha, 0 to 100 scale where 0 is no effect and 100 is complete control
[9] = Rate 125 g/ha, 0 is no effect, 100 is complete control
[10] = Rate 500 g/ha, 0 is no effect, 100 is complete control

CC(C)N(C(=O)n1oc(=O)n(C2CC2)c1=O)c1ccc(F)cc1 [Compound 242]
Plant response rating, Dallisgrass (dallisgrass; [3]): 60
Plant response rating, Dallisgrass (dallisgrass; [4]): 90
Plant response rating, Dallisgrass (dallisgrass; [5]): 90
Plant response rating, Dallisgrass (dallisgrass; [6]): 100
Plant response rating, Dallisgrass (dallisgrass; Rate 250 g/ha): 100
Plant response rating, Large crabgrass (large crabgrass; Rate 140 g/ha): 10
Plant response rating, Large crabgrass (large crabgrass; Rate 280 g/ha): 30
Plant response rating, Large crabgrass (large crabgrass; Rate 560 g/ha): 85
Plant response rating, Large crabgrass (large crabgrass; Rate 1120 g/ha): 85
Plant response rating, Common poppy (common poppy; Rate 62 g/ha, 0 to 100 scale): 55
Plant response rating, Common poppy (common poppy; Rate 125 g/ha, 0 to 100 scale, 0 is no effect, 100 is complete control): 40
Common poppy plant response rating (common poppy): 20
Plant response rating, Common poppy (common poppy; Rate 500 g/ha, 0 to 100 scale, 0 is no effect, 100 is complete control): 0
Plant response rating, Spring Wheat (spring wheat [1]; [7]): 55
Spring Wheat plant response rating (0 to 100 scale) (spring wheat [1]): 60
Plant response rating, Spring Wheat (spring wheat [1]; [8]): 100
Plant response rating, Spring Wheat (spring wheat [2]; Rate 62 g/ha): 15
Plant response rating, Spring Wheat (spring wheat [2]; [9]): 20
Spring Wheat plant response rating (spring wheat [2]): 10
Plant response rating, Spring Wheat (spring wheat [2]; [10]): 20
Plant response rating, Spanishneedles (Spanishneedles; [3]): 0
Plant response rating, Spanishneedles (Spanishneedles; [4]): 0
Spanishneedles plant response rating (Spanishneedles; [5]): 0
Spanishneedles plant response rating (Spanishneedles; [6]): 0
Plant response rating, Spanishneedles (Spanishneedles; Rate 250 g/ha): 100
Plant response rating, Windgrass (windgrass): 100
Plant response rating I. morningglory (ivyleaf morningglory; Rate 140 g/ha): 0
Plant response rating I. morningglory (ivyleaf morningglory; Rate 280 g/ha): 0
Plant response rating I. morningglory (ivyleaf morningglory; Rate 560 g/ha): 0
Plant response rating I. morningglory (ivyleaf morningglory; Rate 1120 g/ha): 0
Plant response rating, Alexandergrass (Alexandergrass; [3]): 0
Plant response rating, Alexandergrass (Alexandergrass; [4]): 50
Plant response rating, Alexandergrass (Alexandergrass; [5]): 90
Plant response rating, Alexandergrass (Alexandergrass; [6]): 100
Plant response rating, Alexandergrass (Alexandergrass; Rate 250 g/ha): 100
Plant response rating, C. purslane (common pursiane; [3]): 0
Plant response rating, C. purslane (common pursiane; [4]): 0
Plant response rating, C. purslane (common pursiane; [5]): 0
Plant response rating, C. purslane (common pursiane; [6]): 0
Plant response rating, C. purslane (common pursiane; Rate 250 g/ha): 0
Plant response rating, Barnyardgrass (barnyardgrass; Rate 140 g/ha): 80
Plant response rating, Barnyardgrass (barnyardgrass; Rate 280 g/ha): 85
Plant response rating, Barnyardgrass (barnyardgrass; Rate 560 g/ha): 90
Plant response rating, Barnyardgrass (barnyardgrass; Rate 1120 g/ha): 95
Plant response rating, Spring Barley (spring barley; [7]): 60
Spring Barley plant response rating (0 to 100 scale) (spring barley): 70
Plant response rating, Spring Barley (spring barley; [8]): 85
Plant response rating, Purple nutsedge (purple nutsedge; Rate 140 g/ha): 0
Plant response rating, Purple nutsedge (purple nutsedge; Rate 280 g/ha): 0
Plant response rating, Purple nutsedge (purple nutsedge; Rate 560 g/ha): 10
Plant response rating, Purple nutsedge (purple nutsedge; Rate 1120 g/ha): 80
Plant response rating, Galium (galium; Rate 62 g/ha): 0
Plant response rating, Galium (galium; [9]): 20
Galium plant response rating (galium): 30
Plant response rating, Galium (galium; [10]): 40
Plant response rating, Deadnettle (deadnettle; Rate 62 g/ha): 100
Plant response rating, Deadnettle (deadnettle; [9]): 10
Deadnettle plant response rating (deadnettle): 10
Plant response rating, Deadnettle (deadnettle; [10]): 50
Plant response rating, Kochia (kochia; Rate 62 g/ha): 20
Plant response rating, Kochia (kochia; [9]): 60
Kochia plant response rating (kochia): 0
Plant response rating, Kochia (kochia; [10]): 20

CC(C)N(C(=O)n1oc(=O)n(C)c1=O)c1ccc(F)cc1 [Compound 138]
Plant response rating, Large crabgrass (large crabgrass; Rate 140 g/ha): 0
Plant response rating, Large crabgrass (large crabgrass; Rate 280 g/ha): 10
Plant response rating, Large crabgrass (large crabgrass; Rate 560 g/ha): 85
Plant response rating, Large crabgrass (large crabgrass; Rate 1120 g/ha): 85
Plant response rating, Comnion poppy (common poppy; Rate 125 g/ha, 0 to 100 scale): 20
Common poppy plant response rating (common poppy): 40
Plant response rating, Spring Wheat (spring wheat [1]; [7]): 55
Spring Wheat plant response rating (0 to 100 scale) (spring wheat [1]): 100
Plant response rating, Spring Wheat (spring wheat [2]; Rate 125 g/ha): 0
Spring Wheat plant response rating (spring wheat [2]): 0
Plant response rating, Windgrass (windgrass): 100
Windgrass plant response rating (0 to 100 scale) (windgrass; Rate 250 g/ha): 100
Plant response rating I. morningglory (ivyleaf morningglory; Rate 140 g/ha): 0
Plant response rating I. morningglory (ivyleaf morningglory; Rate 280 g/ha): 0
Plant response rating I. morningglory (ivyleaf morningglory; Rate 560 g/ha): 0
Plant response rating I. morningglory (ivyleaf morningglory; Rate 1120 g/ha): 0
Plant response rating, Barnyardgrass (barnyardgrass; Rate 140 g/ha): 40
Plant response rating, Barnyardgrass (barnyardgrass; Rate 280 g/ha): 70
Plant response rating, Barnyardgrass (barnyardgrass; Rate 560 g/ha): 85
Plant response rating, Barnyardgrass (barnyardgrass; Rate 1120 g/ha): 85
Plant response rating, Spring Barley (spring barley; [7]): 60
Spring Barley plant response rating (0 to 100 scale) (spring barley): 90
Plant response rating, Purple nutsedge (purple nutsedge; Rate 140 g/ha): 0
Plant response rating, Purple nutsedge (purple nutsedge; Rate 280 g/ha): 0
Plant response rating, Purple nutsedge (purple nutsedge; Rate 560 g/ha): 50
Plant response rating, Purple nutsedge (purple nutsedge; Rate 1120 g/ha): 70
Plant response rating, Galium (galium; Rate 125 g/ha): 20
Galium plant response rating (galium): 50
Plant response rating, Deadnettle (deadnettle; Rate 125 g/ha): 0
Deadnettle plant response rating (deadnettle): 50
Plant response rating, Kochia (kochia; Rate 125 g/ha): 15
Kochia plant response rating (kochia): 0

CC(C)N(C(=O)n1oc(=O)n(C2CCCCCC2)c1=O)c1ccc(F)cc1F [Compound 342]
Plant response rating, Dallisgrass (dallisgrass; [3]): 0
Plant response rating, Dallisgrass (dallisgrass; [4]): 0
Plant response rating, Dallisgrass (dallisgrass; [5]): 0
Plant response rating, Dallisgrass (dallisgrass; [6]): 90
Plant response rating, Dallisgrass (dallisgrass; Rate 250 g/ha): 100
Plant response rating, Spanishneedles (Spanishneedles; [3]): 0
Plant response rating, Spanishneedles (Spanishneedles; [4]): 0
Spanishneedles plant response rating (Spanishneedles; [5]): 0
Spanishneedles plant response rating (Spanishneedles; [6]): 0
Plant response rating, Spanishneedles (Spanishneedles; Rate 250 g/ha): 0
Plant response rating, Alexandergrass (Alexandergrass; [3]): 0
Plant response rating, Alexandergrass (Alexandergrass; [4]): 0
Plant response rating, Alexandergrass (Alexandergrass; [5]): 0
Plant response rating, Alexandergrass (Alexandergrass; [6]): 70
Plant response rating, Alexandergrass (Alexandergrass; Rate 250 g/ha): 80
Plant response rating, C. purslane (common pursiane; [3]): 0
Plant response rating, C. purslane (common pursiane; [4]): 0
Plant response rating, C. purslane (common pursiane; [5]): 0
Plant response rating, C. purslane (common pursiane; [6]): 0
Plant response rating, C. purslane (common pursiane; Rate 250 g/ha): 0
